Measured values from paper PMC7910394, “Design of PSMA ligands with modifications at the inhibitor part: an approach to reduce the salivary gland uptake of radiolabeled PSMA inhibitors?” (EJNMMI Radiopharmacy and Chemistry, 2021).

Experiments:
[1] = in vivo; cited from earlier work
[2] = tested on: LNCaP tumor xenograft-bearing CB17-SCID mice; type: in vivo, mouse; conditions: 24 h p.i.
Procedure: All animal experiments were conducted in accordance with general animal welfare regulations in Germany (German animal protection act, as amended on 18.05.2018, Art. 141 G v. 29.3.2017 I 626, approval no. 55.2–1-54-2532-71-13) and the institutional guidelines for the care and use of animals. To establish tumor xenografts, LNCaP cells (approx. 10^7 cells) were suspended in 200 μL of a 1/1 mixture (v/v) of DMEM F-12 and Matrigel (BD Biosciences, Heidelberg, Germany) and inoculated subcutaneously onto the right shoulder of 6–8 weeks old CB17-SCID mice (Charles River Laboratories, Sulzfeld, Germany). Mice were used for experiments when tumor size reached 5–10 mm in diameter (3–6 weeks after inoculation).
(§1) Approximately 2–10 MBq (0.20 nmol) of the ^177Lu-labeled PSMA inhibitors were injected into the tail vein of LNCaP tumor xenograft-bearing male CB17-SCID mice (n = 3 to 5). They were sacrificed by CO2 asphyxiation and cervical dislocation either 1 h or 24 h post injection (p.i.) (n = 3 for [^177Lu]Lu-5, -6 & -7 (proinhibitor compounds I-III), n = 4 for [^177Lu]Lu-10 (alkyne), n = 5 for [^177Lu]Lu-3 (carbamate I) and n = 5 for [^177Lu]Lu-11 (tetrazole)). Selected organs were removed, weighed and organ activities measured in a γ-counter.
as §1, with “2 - 10” for “2–10”, “(alkyne) and” for “(alkyne),”

LNCaP cells = test: Internalization study of 177Lu-labeled ligands in LNCaP cells, normalized to ([125I]I-BA)KuE; type: cell-based, human; conditions: 37 °C; for internalization (in words): time points 0.5 h, 2 h and 4 h; for %Internalization compared to the reference: 1.0 nM 177Lu-compound, normalized to ([125I]I-BA)KuE
Procedure: (§2) PSMA-positive LNCaP cells (300265; Cell Lines Service, Eppelheim, Germany) were cultivated in Dulbecco’s modified Eagle medium/Nutrition Mixture F-12 with GlutaMAX (1/1, DMEM-F12, Thermo Fisher Scientific, Darmstadt, Germany) supplemented with 10% fetal bovine serum (Merck KGaA, Darmstadt, Germany) and kept at 37 °C in a humidified 5% CO2 atmosphere. One day (24 ± 2 h) prior to all in vitro experiments, the cultivated LNCaP cells were harvested using a mixture of trypsin/ethylenediamine-tetraacetic acid (0.05%/0.02%) in PBS (Thermo Fisher Scientific, Darmstadt, Germany) and centrifuged at 1300 rpm (ca. 190×g) for 3 min at room temperature (Heraeus Megafuge 16, Thermo Fisher Scientific, Darmstadt, Germany). After centrifugation, the supernatant was disposed and the cell pellet was resuspended in culture medium. Cells were counted with a Neubauer hemocytometer (Paul Marienfeld GmbH & Co. KG, Lauda-Königshofen, Germany) and seeded in 24-well plates.
(§3) Detailed information on affinity and internalization experiments is provided in the supporting information. […] IC50 values of (^natI-BA)KuE were determined on the same day for monitoring assay performance and to identify abnormal deviations in uptake and/or affinity. […] Data were corrected for non-specific binding and normalized to the specific internalization observed for the radioiodinated reference compound (n = 3).
The culture medium was removed and the cells were washed with 500 µL of DMEM-F12 containing 5% BSA. Afterwards, 200 µL of DMEM-F12 (5% BSA) were added to each well and left to equilibrate at 37 °C for 15 min. 25 µL of DMEM-F12 (5% BSA) were added to each well, followed by the addition of 25 µL of the respective ^177Lu-labeled ligand (10.0 nM in DMEM-F12 (5% BSA)). For blocking PSMA-specific binding and uptake, 25 µL of 2-(phosphonomethyl)pentane-1,5-dioic acid (2-PMPA) (100 µM in DMEM (5% BSA)) instead of DMEM-F12 (5% BSA) were added prior to radiotracer addition. […] Each experiment (control and blockade) was performed in triplicate. […] Incubation was terminated by placing the plate on ice (4 °C, 1 min) and removal of the incubation medium. The cells were washed with 250 µL of ice-cold PBS and the wash medium was combined with the respective supernatant. This fraction represents the amount of free radioligand. 250 µL of ice-cold 2-PMPA (10 µM in PBS) were added and the cells were incubated for 10 min at 4 °C. Afterwards, the cells were rinsed again with 250 µL of ice-cold PBS and the wash medium was combined with the respective supernatant. This fraction represents the amount of cell surface-bound ligand. In the last step, the cells were lysed by addition of 250 µL of 1 M aqueous NaOH. After 20 min, the lysate of each well was transferred to the respective vial as well as 250 µL of 1 M NaOH used for rinsing the well. This fraction represents the amount of internalized radioligand. Quantification of the amount of free, cell surface-bound and internalized activity was performed in a γ-counter.

[3] = Lipophilicity (log D), shake-flask method; type: physicochemical; conditions: n-octanol/PBS pH 7.4, 177Lu-labeled compound, n = 6
Procedure: The log D values were determined, using the shake-flask method as previously described (Wurzer et al. [2020]). The radiolabeled tracer (0.5–1 MBq, 20 μL) was dissolved in 1 mL of a 1/1 mixture (v/v) of PBS (pH 7.4) and n-octanol in a reaction vial (n = 6). After vigorous mixing of the suspension for 3 min at r.t., the vial was centrifuged at 9000 rpm (ca. 7700×g) for 5 min at room temperature (Heraeus Biofuge 15, Thermo Fisher Scientific, Darmstadt, Germany) and 150 μL aliquots of both layers were measured in a ɣ-counter.

PSMA = biological target: T1, PSMA (Homo sapiens, UniProt Q04609); test: Competitive binding assay (IC50) on LNCaP cells with ([125I]I-BA)KuE as radioligand; conditions: ([125I]I-BA)KuE 0.2 nM, HBSS (1% BSA), 4 °C, 1 h
T1 construct: host or cells: LNCaP human prostate cancer cells
T1 sequence (Q04609 whole entry): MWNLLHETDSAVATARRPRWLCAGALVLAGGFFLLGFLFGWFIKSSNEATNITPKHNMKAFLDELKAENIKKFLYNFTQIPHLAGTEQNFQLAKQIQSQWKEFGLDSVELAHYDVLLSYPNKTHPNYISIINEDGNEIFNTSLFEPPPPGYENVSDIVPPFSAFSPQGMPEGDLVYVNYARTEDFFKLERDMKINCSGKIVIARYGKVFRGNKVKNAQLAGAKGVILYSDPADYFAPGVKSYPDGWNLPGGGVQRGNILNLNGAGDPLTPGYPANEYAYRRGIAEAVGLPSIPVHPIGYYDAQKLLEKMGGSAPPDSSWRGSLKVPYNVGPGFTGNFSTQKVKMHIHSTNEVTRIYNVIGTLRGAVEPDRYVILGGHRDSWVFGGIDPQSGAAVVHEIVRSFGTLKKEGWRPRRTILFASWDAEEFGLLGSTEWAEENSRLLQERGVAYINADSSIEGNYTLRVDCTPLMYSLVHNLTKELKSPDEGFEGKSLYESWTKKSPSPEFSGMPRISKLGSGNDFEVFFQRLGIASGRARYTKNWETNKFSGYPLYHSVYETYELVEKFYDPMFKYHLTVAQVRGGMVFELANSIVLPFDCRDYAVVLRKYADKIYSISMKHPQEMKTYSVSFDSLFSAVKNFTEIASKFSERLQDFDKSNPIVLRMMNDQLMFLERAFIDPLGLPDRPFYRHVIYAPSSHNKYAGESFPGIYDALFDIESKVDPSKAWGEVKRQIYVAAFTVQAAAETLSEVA
Procedure: as §2, §3
The culture medium was removed and the cells were washed with 500 µL of Hank’s balanced salt solution (HBSS) (Merck KGaA, Darmstadt, Germany), containing 1% bovine serum albumin (BSA) (Merck KGaA, Darmstadt, Germany). Afterwards, 200 µL of HBSS (1% BSA) were added to each well and equilibrated on ice (4 °C) for 15 min. […] Experiments were carried out in triplicates for each concentration. The final concentrations of unlabeled ligand ranged from 10^-11 - 10^-5 M and the final radioligand concentration was 0.2 nM in all binding assays. The cells were incubated for one hour at 4 °C. Incubation was terminated by removal of the incubation medium. The cells were washed with 250 µL of HBSS (1% BSA) and the wash medium was combined with the respective supernatant. This fraction represents the amount of free radioligand. The cells were lysed by addition of 250 µL of 1 M aqueous NaOH. The lysate of each well was transferred to the respective vial as well as 250 µL of 1 M NaOH used for rinsing the well. Quantification of the amount of free and bound activity was performed in a γ-counter. The corresponding IC50 values were calculated using the GraphPad PRISM7 software.

botulinum toxin
decrease of the SUVmean in the right parotid gland compared to the left (control) [1]: up to 64%

CCCCCCC(NC(=O)C(CCC(=O)O)NC(=O)NC(CCC(=O)NC(CCCNC(=O)CCC(=O)NCCCCC(NC(=O)C(CNC(=O)c1ccc([Si](F)(C(C)(C)C)C(C)(C)C)cc1)NC(=O)CN1CCN(CC(=O)[O-])CCN(CC(=O)[O-])CCN(CC(=O)[O-])CC1)C(=O)O)C(=O)O)C(=O)O)C(=O)O.[Lu+3] (centres unmarked) [^natLu/[^177Lu]Lu-7]
Biodistribution Adrenals [2]: 0.03 ± 0.01 % ID/g
Biodistribution Blood [2]: 0.01 ± 0.00 % ID/g
Biodistribution Bone [2]: 0.04 ± 0.01 % ID/g
Biodistribution Heart [2]: 0.03 ± 0.01 % ID/g
Biodistribution Intestine [2]: 0.10 ± 0.05 % ID/g
Biodistribution Kidneys [2]: 2.04 ± 0.75 % ID/g
Biodistribution Liver [2]: 0.17 ± 0.05 % ID/g
Biodistribution Lung [2]: 0.04 ± 0.01 % ID/g
Biodistribution Muscle [2]: 0.01 ± 0.00 % ID/g
Biodistribution Pancreas [2]: 0.02 ± 0.00 % ID/g
Biodistribution Parotid gland [2]: 0.06 ± 0.01 % ID/g
Biodistribution Spleen [2]: 0.08 ± 0.02 % ID/g
Biodistribution Stomach [2]: 0.04 ± 0.01 % ID/g
Biodistribution Submandibular gland [2]: 0.05 ± 0.02 % ID/g
Biodistribution Tumor [2]: 0.14 ± 0.05 % ID/g
internalization (in words) (LNCaP cells; 1 h): no internalization could be detected
%Internalization compared to the reference (LNCaP cells; 0.5 h): 0.5 h: 0.00 ± 0.00 1 h: 0.00 ± 0.00 2 h: 0.00 ± 0.00 4 h: 0.00 ± 0.00%
%Internalization compared to the reference (LNCaP cells; 1 h): 0.5 h: 0.00 ± 0.00 1 h: 0.00 ± 0.00 2 h: 0.00 ± 0.00 4 h: 0.00 ± 0.00%
%Internalization compared to the reference (LNCaP cells; 2 h): 0.5 h: 0.00 ± 0.00 1 h: 0.00 ± 0.00 2 h: 0.00 ± 0.00 4 h: 0.00 ± 0.00%
%Internalization compared to the reference (LNCaP cells; 4 h): 0.5 h: 0.00 ± 0.00 1 h: 0.00 ± 0.00 2 h: 0.00 ± 0.00 4 h: 0.00 ± 0.00%
log D [3]: −2.37 ± 0.22
IC50 (PSMA): 6.3 ± 3.6 µM

CSCC[C@H](NC(=O)CC[C@H](NC(=O)N[C@@H](CCC(=O)N[C@H](CCCNC(=O)CCC(=O)NCCCC[C@@H](NC(=O)[C@@H](CNC(=O)c1ccc([Si](F)(C(C)(C)C)C(C)(C)C)cc1)NC(=O)CN1CCN(CC(=O)[O-])CCN(CC(=O)[O-])CCN(CC(=O)[O-])CC1)C(=O)O)C(=O)O)C(=O)O)C(=O)O)C(=O)O.[Lu+3] [^natLu/[^177Lu]Lu-5]
Biodistribution Heart [2]: 0.01 ± 0.00 % ID/g
Biodistribution Intestine [2]: 0.55 ± 0.04 % ID/g
Biodistribution Kidneys [2]: 0.48 ± 0.02 % ID/g
Biodistribution Liver [2]: 0.05 ± 0.00 % ID/g
Biodistribution Lung [2]: 0.33 ± 0.30 % ID/g
Biodistribution Pancreas [2]: 0.01 ± 0.00 % ID/g
Biodistribution Parotid gland [2]: 0.02 ± 0.00 % ID/g
Biodistribution Spleen [2]: 0.05 ± 0.01 % ID/g
Biodistribution Stomach [2]: 0.14 ± 0.07 % ID/g
Biodistribution Submandibular gland [2]: 0.02 ± 0.01 % ID/g
Biodistribution Tumor [2]: 0.09 ± 0.02 % ID/g
internalization (in words) (LNCaP cells; 1 h): no internalization could be detected
%Internalization compared to the reference (LNCaP cells; 0.5 h): 0.00 ± 0.00%
%Internalization compared to the reference (LNCaP cells; 1 h): 0.00 ± 0.00%
%Internalization compared to the reference (LNCaP cells; 2 h): 0.17 ± 0.32%
%Internalization compared to the reference (LNCaP cells; 4 h): 0.01 ± 0.05%
log D [3]: −2.89 ± 0.18
IC50 (PSMA): 26 ± 16 µM
